Laboratory results as given in ChEMBL document CHEMBL1139474, “Cellular apoptosis and cytotoxicity of phenolic compounds: a quantitative structure-activity relationship study” (J Med Chem, 2005).

Columns and labels:
L1210 [1] = assay: Activity against caspase-mediated apoptosis in mouse L1210 cells at 0.1 mM; type: functional
L1210 [2] = assay: Cytotoxicity against mouse L1210 cells; conditions: mouse, l1210
L1210 [3] = assay: Activity against caspase-mediated apoptosis in mouse L1210 cells; type: functional

SMILES | Activity (L1210 [1]) | log(1/ID50) (L1210 [2]) | log(1/ID50) (L1210 [3])
OCc1ccccc1O [SALICYL ALCOHOL] | <15% | 2.7 | 
CC(C)(C)c1cc(C(C)(C)C)c(O)c(C(C)(C)C)c1 |  | 5.05 | 2.1
CC(C)(C)c1cccc(O)c1 | <15% | 3.88 | 
COc1cc(C=O)cc(OC)c1O [SYRINGALDEHYDE] |  | 3.1 | 2.9
COc1ccc(O)c(C)c1 |  | 3.39 | 
CC(C)(C)c1cc(CO)cc(C(C)(C)C)c1O |  | 3.88 | 2.39
Oc1ccc(F)cc1 | <15% | 3.83 | 
NC(=O)Nc1ccccc1O | <15% | 3.5 | 
Cc1cc(C)c(O)c(C)c1 |  | 3.2 | 
CCc1ccc(O)c(C(C)(C)C)c1 |  | 3.8 | 
CC(C)Cc1ccccc1O | <15% | 3.9 | 
CC(=O)Nc1ccc(O)cc1 [ACETAMINOPHEN] | <15% | 3.73 | 
Cc1ccc(O)c(N)c1 |  |  | 2.09
COc1ccccc1O.Cl [GUAIACOL HYDROCHLORIDE] | <15% | 3.78 | 
O=Cc1ccc(O)cc1 [4-HYDROXYBENZALDEHYDE] | <15% | 3.08 | 
Oc1ccccc1F | <15% | 3.2 | 
Oc1ccccc1O [CATECHOL] | <15% | 3.75 | 
CCCCCc1ccc(O)cc1 | <15% | 4.47 | 
Cc1ccc(O)c(C(C)(C)C)c1 |  | 3.8 | 
CCOc1ccccc1O [1-hydroxy-2-ethoxybenzene] | <15% | 3.25 | 
Cc1ccc(O)c(O)c1 |  | 5.03 | 
CC(C)(C)c1ccc(O)cc1 | <15% |  | 
Cc1cc(Br)ccc1O |  | 3.46 | 
Oc1ccccc1C(F)(F)F | <15% | 3.22 | 
Cc1cc(F)ccc1O |  | 3.09 | 

SMILES | Activity (L1210 [1]) | log(1/ID50) (L1210 [2]) | log(1/ID50) (L1210 [3])
CCCCc1ccc(O)cc1 | <15% | 4.33 | 
CN(C)c1cccc(O)c1 | <15% | 4.11 | 
Oc1cccc(Cl)c1 | <15% |  | 
CC(=O)c1ccc(O)c(C)c1 |  | 3.14 | 
Cc1cccc(C)c1O |  | 3.02 | 
CC(C)(C)c1ccc(O)c(C(C)(C)C)c1 |  | 4.24 | 
Oc1ccc(O)cc1 [HYDROQUINONE] | <15% | 4.59 | 
Oc1ccccc1Cl [2-CHLOROPHENOL] | <15% | 3.22 | 
Oc1ccc(Br)cc1 | <15% |  | 
CCc1cccc(CC)c1O |  | 3.26 | 
CCCCCCCCCc1ccc(O)cc1 [4-NONYLPHENOL] | <15% | 4.75 | 
CC(C)c1cccc(C(C)C)c1O [PROPOFOL] |  | 3.25 | 
CC(C)(C)c1ccc(O)cc1.Cl | <15% |  | 
Nc1cc([N+](=O)[O-])ccc1O [2-AMINO-4-NITROPHENOL] |  |  | 2.46
Oc1ccccc1Br | <15% | 3.44 | 
CSc1ccccc1O | <15% | 3.7 | 
Cc1cccc(C(C)(C)C)c1O |  | 3.73 | 
CCc1cccc(O)c1 | <15% | 3.71 | 
Cc1cc([N+](=O)[O-])ccc1O |  | 3.49 | 
Cl.Nc1cccc(O)c1 [3-AMINOPHENOL HYDROCHLORIDE] | <15% | 4.11 | 
CCCCCCCc1ccc(O)cc1 | <15% | 4.49 | 
COc1cc(OC)c(O)c(OC)c1 |  |  | 2.2
N#Cc1ccccc1O | <15% | 3.3 | 
O=[N+]([O-])c1ccccc1O [NITROPHENOLATE] | <15% | 3.34 | 
Cc1ccc(O)c(C)c1 |  | 3.04 | 
